From patent US20110118238A1, “2-ANILINOPURIN-8-ONES AS INHIBITORS OF TTK/MPS1 FOR THE TREATMENT OF PROLIFERATIVE DISORDERS” (ASTRAZENECA AB, priority 2007, published 2011)

What was measured:
[1] = target: T1, N-terminal GST tagged full length human TTK kinase (Homo sapiens, UniProt P33981); test: In Vitro TTK Kinase Assay 1 (AlphaScreen); assay type: biochemical; details: recombinant TTK, 10 μM ATP, read-out: EAA: Enzyme Assay Activity (In Vitro TTK kinase assay 1)
T1 construct: N-terminal GST tagged full length human TTK kinase; GST (N); made in house; host or cells: insect cells
T1 sequence (P33981 1-857): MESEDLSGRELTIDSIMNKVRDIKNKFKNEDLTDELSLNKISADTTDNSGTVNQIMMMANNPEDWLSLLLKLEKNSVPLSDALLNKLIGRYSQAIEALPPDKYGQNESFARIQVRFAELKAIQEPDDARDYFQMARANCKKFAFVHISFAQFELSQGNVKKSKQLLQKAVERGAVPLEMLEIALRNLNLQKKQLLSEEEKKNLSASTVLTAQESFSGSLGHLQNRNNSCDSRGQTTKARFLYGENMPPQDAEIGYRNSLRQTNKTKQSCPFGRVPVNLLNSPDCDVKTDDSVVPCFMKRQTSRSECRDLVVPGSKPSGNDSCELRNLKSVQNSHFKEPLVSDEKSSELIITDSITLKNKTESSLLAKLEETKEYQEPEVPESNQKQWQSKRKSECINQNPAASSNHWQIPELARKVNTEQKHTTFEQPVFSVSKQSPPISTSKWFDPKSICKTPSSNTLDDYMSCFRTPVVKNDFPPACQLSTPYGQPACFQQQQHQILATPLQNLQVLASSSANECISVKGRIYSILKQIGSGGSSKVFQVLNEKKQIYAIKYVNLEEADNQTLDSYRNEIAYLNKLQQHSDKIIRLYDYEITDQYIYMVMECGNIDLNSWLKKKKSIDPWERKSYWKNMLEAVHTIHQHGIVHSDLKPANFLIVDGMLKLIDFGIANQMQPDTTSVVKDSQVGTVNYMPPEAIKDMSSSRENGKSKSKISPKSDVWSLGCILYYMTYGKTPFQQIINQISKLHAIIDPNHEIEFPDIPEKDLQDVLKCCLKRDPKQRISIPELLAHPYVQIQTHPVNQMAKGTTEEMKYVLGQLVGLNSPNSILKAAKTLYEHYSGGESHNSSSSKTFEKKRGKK
Protocol: Aliquots (2 μL) of each compound dilution were placed into wells of a Greiner 384-well low volume white polystyrene plate (Greiner Bio-one).
The resultant signals arising from laser light excitation at 680 nm were read using a Packard Envision instrument.

[2] = target: T1, N-terminal GST tagged full length human TTK kinase; test: In Vitro TTK Kinase Assay 2 (Caliper LabChip LC3000); assay type: biochemical; details: recombinant TTK, 12 μM ATP, read-out: EAA2: Enzyme Assay Activity (In Vitro TTK kinase assay 2)
Protocol: Each reaction was stopped by the addition of EDTA to a concentration of 40 mM in a solution which also comprised 0.1% coating reagent (Caliper LS), 100 mM HEPES pH 7.5, 0.015% v/v Brij™-35 and 5% DMSO. The stopped enzyme reactions were sipped through capillaries onto a Caliper chip where the peptide substrate and phosphorylated product were separated and detected via laser-induced fluorescence.

Compound	IC50 [1]	IC50 [2]
COc1cc(N2CCN(C)CC2)ccc1Nc1ncc2c(n1)n(C1CCCC1)c(=O)n2CC#N [Example 36, (9-Cyclopentyl-2-{[2-methoxy-4-(4-methylpiperazin-1-yl)-phenyl]-amino}-8-oxo-8,9-dihydro-7H-purin-7-yl)acetonitrile]	217 nM	21.6 nM
COc1cc(N2CCCN(C)CC2)ccc1Nc1ncc2c(n1)n(C1CCCC1)c(=O)n2C [Example 20, 9-Cyclopentyl-2-{[2-methoxy-4-(4-methyl-1,4-diazepan-1-yl)-phenyl]amino}-7-methyl-7,9-dihydro-8H-purin-8-one]	249 nM	39.5 nM
COc1cc(NC2CCN(C)CC2)ccc1Nc1ncc2c(n1)n(C1CCCC1)c(=O)n2C [Example 22, 9-Cyclopentyl-2-({2-methoxy-4-[(1-methylpiperidin-4-yl)-amino]-phenyl}amino)-7-methyl-7,9-dihydro-8H-purin-8-one]	317 nM	118 nM
CN1CCC(NC(=O)c2ccc(Nc3ncc4c(n3)n(C3CCCC3)c(=O)n4C)c(Cl)c2)CC1 [Example 15, 3-Chloro-4-[(9-cyclopentyl-7-methyl-8-oxo-8,9-dihydro-7H-purin-2-yl)amino]-N-(1-methylpiperidin-4-yl)benzamide]	3230 nM	235 nM
CN1CCN(c2ccc(Nc3ncc4c(n3)n(C3CCCC3)c(=O)n4C)c(Cl)c2)CC1 [Example 18, 2-{[2-Chloro-4-(4-methylpiperazin-1-yl)phenyl]amino}-9-cyclopentyl-7-methyl-7,9-dihydro-8H-purin-8-one]	249 nM	14.8 nM
4-[(9-Cyclopentyl-7-ethyl-8-oxo-8,9-dihydro-7H-purin-2-yl)-amino]-3-methoxy-N-(1-methylpiperidin-4-yl)benzamide [Example 33]	398 nM	38.2 nM
COc1cc(C2CCN(C)CC2)ccc1Nc1ncc2c(n1)n(C1CCCC1)c(=O)n2C [Example 28, 9-Cyclopentyl-2-{[2-methoxy-4-(1-methylpiperidin-4-yl)-phenyl]amino}-7-methyl-7,9-dihydro-8H-purin-8-one]	55.4 nM	14.3 nM
COc1cc(N2CCOCC2)ccc1Nc1ncc2c(n1)n(C1CCCC1)c(=O)n2C [Example 6, 9-Cyclopentyl-2-[(2-methoxy-4-morpholin-4-ylphenyl)-amino]-7-methyl-7,9-dihydro-8H-purin-8-one]	396 nM	78 nM
COc1cc(C(=O)NC2CCN(C)CC2)ccc1Nc1ncc2c(n1)n(C1CCCC1)c(=O)n2C [Example 1]	622 nM	64.6 nM
CCn1c(=O)n(C2CCCC2)c2nc(Nc3ccc(S(N)(=O)=O)cc3)ncc21 [Example 34, 4-[(9-Cyclopentyl-7-ethyl-8-oxo-8,9-dihydro-7H-purin-2-yl)-amino]benzenesulfonamide]	1040 nM	96.3 nM
CCOc1cc(OCCN(C)C)ccc1Nc1ncc2c(n1)n(C1CCCC1)c(=O)n2C [Example 25, 9-Cyclopentyl-2-({4-[2-(dimethylamino)ethoxy]-2-ethoxy-phenyl}-amino)-7-methyl-7,9-dihydro-8H-purin-8-one]	149 nM	28.9 nM
COc1cc(NS(C)(=O)=O)ccc1Nc1ncc2c(n1)n(C1CCCC1)c(=O)n2C [Example 7, N-{4-[(9-Cyclopentyl-7-methyl-8-oxo-8,9-dihydro-7H-purin-2-yl)-amino]-3-methoxyphenyl}methanesulfonamide]	714 nM	30.7 nM

Continued, values first:

IC50 [1]	IC50 [2]	Compound
1510 nM	131 nM	N#CCn1c(=O)n(C2CCCC2)c2nc(Nc3ccc(S(N)(=O)=O)cc3)ncc21 [Example 38, 4-{[7-(Cyanomethyl)-9-cyclopentyl-8-oxo-8,9-dihydro-7H-purin-2-yl]amino}benzenesulfonamide]
–	109 nM	CCN1CCN(c2ccc(Nc3ncc4c(n3)n(C(C)C)c(=O)n4C)c(OC)c2)CC1 [Example 45, 2-{[4-(4-Ethylpiperazin-1-yl)-2-methoxyphenyl]amino}-9-isopropyl-7-methyl-7,9-dihydro-8H-purin-8-one]
–	5360 nM	COc1cc(N2CCN(C)CC2)ccc1Nc1ncc2c(n1)n(C1CCNCC1)c(=O)n2C [Example 70, 2-{[2-Methoxy-4-(4-methylpiperazin-1-yl)phenyl]amino}-7-methyl-9-piperidin-4-yl-7,9-dihydro-8H-purin-8-one]
–	119 nM	COc1cc(C(=O)NCCN(C)C)ccc1Nc1ncc2c(n1)n(C1CCCC1)c(=O)n2C [Example 67, 4-[(9-Cyclopentyl-7-methyl-8-oxo-8,9-dihydro-7H-purin-2-yl)-amino]-N-[2-(dimethylamino)ethyl]-3-methoxybenzamide]
–	140 nM	Cn1c(=O)n(C2CCCC2)c2nc(Nc3ccc(N4CCOCC4)cc3)ncc21 [Example 80, 9-Cyclopentyl-7-methyl-2-[(4-morpholin-4-ylphenyl)amino]-7,9-dihydro-8H-purin-8-one]
–	195 nM	Cn1c(=O)n(C2CCCC2)c2nc(Nc3ccc(Cc4ccccc4)cc3)ncc21 [Example 78, 2-[(4-Benzylphenyl)amino]-9-cyclopentyl-7-methyl-7,9-dihydro-8H-purin-8-one]
–	231 nM	COc1cc(C(=O)N(C)CC2CCN(C(C)C)C2)ccc1Nc1ncc2c(n1)n(C1CCCC1)c(=O)n2C (centres unmarked) [Example 53, 4-[(9-Cyclopentyl-7-methyl-8-oxo-8,9-dihydro-7H-purin-2-yl)-amino]-N-[(1-isopropylpyrrolidin-3-yl)methyl]-3-methoxy-N-methylbenzamide]
–	115 nM	COc1cc(OC2CCN(C)C2)ccc1Nc1ncc2c(n1)n(C(C)C)c(=O)n2C (centres unmarked) [Example 43, 9-Isopropyl-2-({2-methoxy-4-[(1-methylpyrrolidin-3-yl)oxy]-phenyl}amino)-7-methyl-7,9-dihydro-8H-purin-8-one]
5650 nM	–	COc1cc(C2CCN(C)CC2)ccc1Nc1ncc2c(n1)n(C(C)C)c(=O)n2C [Example 47, 9-Isopropyl-2-{[2-methoxy-4-(1-methylpiperidin-4-yl)phenyl]-amino}-7-methyl-7,9-dihydro-8H-purin-8-one]
–	50.9 nM	COc1cc(C(=O)NCCCN(C)C)ccc1Nc1ncc2c(n1)n(C1CCCC1)c(=O)n2C [Example 62, 4-[(9-Cyclopentyl-7-methyl-8-oxo-8,9-dihydro-7H-purin-2-yl)-amino]-N-[3-(dimethylamino)propyl]-3-methoxybenzamide]
–	61.1 nM	COc1cc(C(=O)NCCN2CCN(C)CC2)ccc1Nc1ncc2c(n1)n(C1CCCC1)c(=O)n2C [Example 64, 4-[(9-Cyclopentyl-7-methyl-8-oxo-8,9-dihydro-7H-purin-2-yl)-amino]-3-methoxy-N-[2-(4-methylpiperazin-1-yl)ethyl]benzamide]
–	41.2 nM	COc1cc(C(=O)NCCCn2ccnc2)ccc1Nc1ncc2c(n1)n(C1CCCC1)c(=O)n2C [Example 52, 4-[(9-Cyclopentyl-7-methyl-8-oxo-8,9-dihydro-7H-purin-2-yl)-amino]-N-[3-(1H-imidazol-1-yl)propyl]-3-methoxybenzamide]
–	53.6 nM	COc1cc(C(=O)NCCCCN(C)C)ccc1Nc1ncc2c(n1)n(C1CCCC1)c(=O)n2C [Example 61, 4-[(9-Cyclopentyl-7-methyl-8-oxo-8,9-dihydro-7H-purin-2-yl)-amino]-N-[4-(dimethylamino)butyl]-3-methoxybenzamide]
